Data reported in US20240254119A1 (THIRD HARMONIC BIO, INC., priority 2022, published 2024).

Experiments:
Kinetic solubility assay = format: physicochemical; conditions: kinetic solubility, 50 mM PB (pH 7.4), shaken 24 hours at RT
Procedure, shortened: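 Test compounds from 10 mM DMSO stock were diluted in 50 mM phosphate buffer, pH 7.4, and shaken for 24 h at RT. After PTFE filtration and centrifugation, filtrate concentration was quantified by UPLC-UV/HPLC-UV against a standard curve.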

PDGFRα = target: T1, PDGFRα (Homo sapiens, UniProt P16234); assay: Caliper biochemical assay, PDGFRα; conditions: Table 6
T1 construct: purchased Millipore 14-467 (lot 26321_ACTI)
T1 sequence (P16234 24-1089): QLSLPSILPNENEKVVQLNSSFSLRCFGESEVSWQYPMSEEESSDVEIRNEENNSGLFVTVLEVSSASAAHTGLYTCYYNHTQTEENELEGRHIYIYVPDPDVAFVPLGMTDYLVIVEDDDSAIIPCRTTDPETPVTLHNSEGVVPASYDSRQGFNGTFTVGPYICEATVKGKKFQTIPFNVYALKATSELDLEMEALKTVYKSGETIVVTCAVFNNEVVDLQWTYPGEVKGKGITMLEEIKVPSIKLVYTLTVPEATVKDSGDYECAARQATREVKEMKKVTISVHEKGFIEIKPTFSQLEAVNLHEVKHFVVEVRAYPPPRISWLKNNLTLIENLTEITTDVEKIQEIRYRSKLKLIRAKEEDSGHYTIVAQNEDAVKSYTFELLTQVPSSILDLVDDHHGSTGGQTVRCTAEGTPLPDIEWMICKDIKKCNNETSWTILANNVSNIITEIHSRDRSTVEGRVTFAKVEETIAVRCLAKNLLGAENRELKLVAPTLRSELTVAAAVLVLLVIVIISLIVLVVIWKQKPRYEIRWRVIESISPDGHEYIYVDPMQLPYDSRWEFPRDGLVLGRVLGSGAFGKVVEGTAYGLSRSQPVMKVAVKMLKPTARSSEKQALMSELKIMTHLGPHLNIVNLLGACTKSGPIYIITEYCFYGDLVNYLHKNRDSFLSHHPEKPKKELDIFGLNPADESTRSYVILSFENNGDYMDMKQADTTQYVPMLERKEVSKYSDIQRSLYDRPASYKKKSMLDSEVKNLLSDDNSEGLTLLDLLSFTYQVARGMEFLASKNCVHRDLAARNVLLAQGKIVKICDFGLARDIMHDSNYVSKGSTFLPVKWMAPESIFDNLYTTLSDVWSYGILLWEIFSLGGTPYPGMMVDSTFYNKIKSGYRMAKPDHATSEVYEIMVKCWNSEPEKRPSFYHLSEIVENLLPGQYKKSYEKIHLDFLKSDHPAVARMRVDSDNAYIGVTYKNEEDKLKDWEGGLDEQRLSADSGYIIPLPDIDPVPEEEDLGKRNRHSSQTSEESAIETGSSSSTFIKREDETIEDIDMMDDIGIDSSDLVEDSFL
Procedure, shortened: (§1)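 Kinase, FAM-labelled peptide substrate, ATP and Mn^2+ incubated with compound for 3 h at 25° C, then quenched with EDTA buffer. Substrate and phosphorylated product separated by microfluidic electrophoresis and quantified by fluorescence intensity; no-enzyme wells define 100% inhibition.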

CSF-1R = target: T2, CSF-1R (Homo sapiens, UniProt P07333); assay: Caliper biochemical assay, CSF-1R; conditions: Table 6
T2 construct: purchased Invitrogen PV3249 (lot 662393N)
T2 sequence (P07333 20-972): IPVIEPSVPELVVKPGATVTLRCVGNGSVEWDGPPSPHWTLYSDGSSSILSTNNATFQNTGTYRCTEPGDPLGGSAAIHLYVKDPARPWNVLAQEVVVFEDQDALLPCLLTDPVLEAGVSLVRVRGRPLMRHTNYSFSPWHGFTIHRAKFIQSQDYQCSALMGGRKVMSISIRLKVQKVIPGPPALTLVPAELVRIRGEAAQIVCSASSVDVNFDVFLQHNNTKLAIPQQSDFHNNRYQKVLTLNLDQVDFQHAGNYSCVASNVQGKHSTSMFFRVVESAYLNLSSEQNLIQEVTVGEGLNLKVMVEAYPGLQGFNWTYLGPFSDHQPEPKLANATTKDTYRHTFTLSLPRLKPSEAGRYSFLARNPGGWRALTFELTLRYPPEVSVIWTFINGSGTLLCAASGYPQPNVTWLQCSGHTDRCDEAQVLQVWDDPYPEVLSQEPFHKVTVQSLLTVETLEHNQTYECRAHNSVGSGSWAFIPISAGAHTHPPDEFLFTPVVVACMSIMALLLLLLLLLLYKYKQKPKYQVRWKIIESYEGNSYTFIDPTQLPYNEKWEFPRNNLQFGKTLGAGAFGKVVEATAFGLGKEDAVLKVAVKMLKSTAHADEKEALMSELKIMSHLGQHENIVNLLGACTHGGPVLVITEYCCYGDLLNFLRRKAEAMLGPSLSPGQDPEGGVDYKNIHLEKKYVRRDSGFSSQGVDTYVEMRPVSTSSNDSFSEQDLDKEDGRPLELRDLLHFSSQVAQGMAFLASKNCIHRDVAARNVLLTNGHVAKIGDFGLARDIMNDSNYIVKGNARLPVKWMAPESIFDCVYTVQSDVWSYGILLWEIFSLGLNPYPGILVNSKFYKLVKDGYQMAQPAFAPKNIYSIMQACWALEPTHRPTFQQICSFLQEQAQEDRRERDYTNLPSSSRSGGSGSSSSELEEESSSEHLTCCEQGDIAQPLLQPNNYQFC
Procedure, shortened: as §1

[1] = target: T3, BCRP (BCRP-MDCKII monolayer) (Homo sapiens, UniProt Q9UNQ0); assay: MDCKII-BCRP bidirectional transport assay; format: in vitro ADME; conditions: for MDCK-BCRP: Papp A-B: apical to basolateral
T3 construct: host or cells: MDCKII (canine kidney) cells
T3 sequence (Q9UNQ0 1-655): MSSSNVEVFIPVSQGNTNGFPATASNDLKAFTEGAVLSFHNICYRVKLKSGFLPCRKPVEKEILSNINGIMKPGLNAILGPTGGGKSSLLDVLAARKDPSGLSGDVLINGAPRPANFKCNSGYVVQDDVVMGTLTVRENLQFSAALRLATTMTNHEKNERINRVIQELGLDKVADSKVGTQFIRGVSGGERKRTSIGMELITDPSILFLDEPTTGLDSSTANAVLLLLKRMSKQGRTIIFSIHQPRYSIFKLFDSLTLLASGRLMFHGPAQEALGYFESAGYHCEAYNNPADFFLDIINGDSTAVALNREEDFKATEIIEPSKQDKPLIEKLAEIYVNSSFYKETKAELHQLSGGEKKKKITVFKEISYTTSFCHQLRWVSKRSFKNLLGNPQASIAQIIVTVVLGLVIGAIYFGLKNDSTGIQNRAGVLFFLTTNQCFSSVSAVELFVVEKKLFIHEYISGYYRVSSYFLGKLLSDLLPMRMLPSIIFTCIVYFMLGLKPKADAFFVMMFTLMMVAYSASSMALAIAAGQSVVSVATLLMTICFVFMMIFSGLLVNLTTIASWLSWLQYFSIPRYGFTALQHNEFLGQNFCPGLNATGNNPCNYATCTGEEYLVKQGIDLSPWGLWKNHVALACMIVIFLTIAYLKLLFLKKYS
Procedure, shortened: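 Bidirectional A→B and B→A transport across PreadyPort BCRP-MDCKII monolayers (days 12–15) was run in duplicate for 120 min at 37° C, 5% CO2 after a 15 min preincubation. Compound levels were measured by LC-MS/MS. Papp and recovery were calculated, with efflux ratio indicating transporter engagement.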

wtKIT = target: T4, wtKIT (Homo sapiens, UniProt P10721); assay: Caliper biochemical assay, wtKIT; conditions: Table 6, read-out: KIT Biochemical IC50 avg
T4 construct: 1888289AM in the reaction mixtures
T4 sequence (P10721 26-976): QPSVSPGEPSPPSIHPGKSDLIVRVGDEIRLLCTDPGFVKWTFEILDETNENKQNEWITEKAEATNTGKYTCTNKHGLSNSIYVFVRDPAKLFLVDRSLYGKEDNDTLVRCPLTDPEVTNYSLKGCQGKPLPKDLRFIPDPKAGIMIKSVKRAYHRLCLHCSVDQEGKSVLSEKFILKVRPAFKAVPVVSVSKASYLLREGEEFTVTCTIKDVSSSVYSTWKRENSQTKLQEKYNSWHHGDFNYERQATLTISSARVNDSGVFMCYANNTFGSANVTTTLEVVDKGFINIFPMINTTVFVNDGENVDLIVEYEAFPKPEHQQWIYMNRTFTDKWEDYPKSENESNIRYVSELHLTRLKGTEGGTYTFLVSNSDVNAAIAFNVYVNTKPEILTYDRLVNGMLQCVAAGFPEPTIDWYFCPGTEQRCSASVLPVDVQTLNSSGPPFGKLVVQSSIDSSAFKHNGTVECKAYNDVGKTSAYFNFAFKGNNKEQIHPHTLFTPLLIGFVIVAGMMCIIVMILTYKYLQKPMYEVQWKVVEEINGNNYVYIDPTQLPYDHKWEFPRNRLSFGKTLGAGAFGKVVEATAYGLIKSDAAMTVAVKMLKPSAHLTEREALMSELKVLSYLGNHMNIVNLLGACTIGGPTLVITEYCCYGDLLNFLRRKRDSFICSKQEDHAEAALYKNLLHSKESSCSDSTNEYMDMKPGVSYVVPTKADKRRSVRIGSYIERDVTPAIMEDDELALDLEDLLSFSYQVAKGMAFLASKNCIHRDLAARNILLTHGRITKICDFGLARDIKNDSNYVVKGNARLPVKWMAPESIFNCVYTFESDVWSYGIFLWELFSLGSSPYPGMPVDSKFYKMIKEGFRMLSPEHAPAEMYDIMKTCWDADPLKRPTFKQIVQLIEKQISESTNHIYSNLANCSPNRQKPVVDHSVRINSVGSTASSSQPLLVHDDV
Procedure, shortened: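 Enzyme (5.0 nM wtKIT), 1 μM FAM-labelled peptide, 400 μM ATP and 10 mM MnCl2 in HEPES pH 7.5 with 1% DMSO, incubated 3 h at 25° C. EDTA quench; substrate and phosphoproduct separated by microfluidic electrophoresis and quantified by fluorescence.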

| Compound | Solubility (μM) (Kinetic solubility assay) | IC50 (PDGFRα) [nM] | IC50 (CSF-1R) [nM] | MDCK-BCRP: Efflux Ratio [1] | MDCK-BCRP: Papp A-B [1] | IC50 (wtKIT) [nM] |
| --- | --- | --- | --- | --- | --- | --- |
| Cc1ccc(-c2noc([C@H]3C[C@@H]3F)n2)cc1NC(=O)c1cnc2ccc(F)cn12 [Compound I-288] | **** (a solubility less than or equal to 2 μM) | 500 to 5000 | 50 to 500 | 1.01 | 7.81 10^−6 cm/s | ≤ 50 |
| Cc1nc(-c2ccc(C)c(NC(=O)c3cnc4cc(C(F)F)ccn34)c2)no1 [Compound I-134] | **** (a solubility less than or equal to 2 μM) | 500 to 5000 | 500 to 5000 | 2.12 | 7.85 10^−6 cm/s | ≤ 50 |
| Cc1nc(-c2ccc(C)c(NC(=O)c3cnc4ccc(N(C)C)cn34)c2)no1 [Compound I-205] | **** (a solubility less than or equal to 2 μM) | 50 to 500 | ≤ 50 | 1.66 | 23.5 10^−6 cm/s | ≤ 50 |
| COCCS(=O)(=O)N1CC(c2nc(-c3ccc(C)c(NC(=O)c4cnc5ccccn45)c3)no2)C1 [Compound I-235] | *** (a solubility greater than 2 μM and less than or equal to 10 μM) | 5000 to 30000 | 50 to 500 | 6.86 | 3.11 10^−6 cm/s | ≤ 50 |
| Cc1ccc(-c2noc(C3CCS(=O)(=O)N3)n2)cc1NC(=O)c1cnc2ccccn12 (racemic) [Compound I-330] | ** (a solubility greater than 10 μM and less than or equal to 50 μM) | 50 to 500 | ≤ 50 | 24.9 | 1.28 10^−6 cm/s | ≤ 50 |
| Cc1ccc(-c2noc(CC(=O)O)n2)cc1NC(=O)c1cnc2ccccn12 [Compound I-335] | * (a solubility greater than 50 μM) | 500 to 5000 | 500 to 5000 | 0.37 | 1.99 10^−6 cm/s | 50 to 500 |
| Cc1ccc(-c2noc(C3COC3)n2)cc1NC(=O)c1cnc2ccccn12 [Compound I-138] | **** (a solubility less than or equal to 2 μM) | 500 to 5000 | ≤ 50 | 5.11 | 10.4 10^−6 cm/s | ≤ 50 |
| Cc1ccc(-c2noc(C3CCC3F)n2)cc1NC(=O)c1cnc2ccccn12 (racemic) [Compound I-376] | **** (a solubility less than or equal to 2 μM) | 50 to 500 | ≤ 50 | 1.02 | 6.24 10^−6 cm/s | ≤ 50 |
| COC(=O)N1CC(c2nc(-c3ccc(C)c(NC(=O)c4cnc5cc(OC[C@H](C)O)ccn45)c3)no2)C1 [Compound I-262] | ** (a solubility greater than 10 μM and less than or equal to 50 μM) | 50 to 500 | ≤ 50 | 46.5 | 0.54 10^−6 cm/s | ≤ 50 |
| COC(=O)N1CC(c2nc(-c3ccc(C)c(NC(=O)c4cnc5cc(OC[C@@H](C)O)ccn45)c3)no2)C1 [Compound I-263] | * (a solubility greater than 50 μM) | 50 to 500 | ≤ 50 | 45.4 | 0.56 10^−6 cm/s | ≤ 50 |
| Cc1ccc(-c2noc([C@H]3C[C@@H]3F)n2)cc1NC(=O)c1cnc2ccc(C#N)cn12 [Compound I-384] | **** (a solubility less than or equal to 2 μM) | 5000 to 30000 | ≤ 50 | 12.9 | 0.59 10^−6 cm/s | ≤ 50 |
| CNC(=O)N1CC(c2nc(-c3ccc(C)c(NC(=O)c4cnc5ccccn45)c3)no2)C1 [Compound I-282] | ** (a solubility greater than 10 μM and less than or equal to 50 μM) | 5000 to 30000 | 5000 to 30000 | 28.1 | 0.55 10^−6 cm/s | ≤ 50 |
| Cc1ccc(-c2noc(C3CN(C(=O)CO)C3)n2)cc1NC(=O)c1cnc2ccccn12 [Compound I-287] | *** (a solubility greater than 2 μM and less than or equal to 10 μM) | 5000 to 30000 | 5000 to 30000 | 0.65 | 11.8 10^−6 cm/s | 50 to 500 |
| Cc1ccc(-c2noc(CO)n2)cc1NC(=O)c1cnc2ccccn12 [Compound I-337] | * (a solubility greater than 50 μM) | 50 to 500 | 50 to 500 | 4.71 | 3.73 10^−6 cm/s | ≤ 50 |
| CCCS(=O)(=O)N1CC(c2nc(-c3ccc(Cl)c(NC(=O)c4cnc5ccccn45)c3)no2)C1 [Compound I-220] | **** (a solubility less than or equal to 2 μM) | 5000 to 30000 | 50 to 500 | 1.17 | 26.4 10^−6 cm/s | ≤ 50 |
| Cc1ccc(-c2noc(C3CC(C)(F)C3)n2)cc1NC(=O)c1cnc2ccccn12 (stereo not drawn) [Compound I-387] | *** (a solubility greater than 2 μM and less than or equal to 10 μM) | 50 to 500 | ≤ 50 | 0.82 | 13.8 10^−6 cm/s | ≤ 50 |
| COC(=O)N1CC(c2nc(-c3ccc(C(F)F)c(NC(=O)c4cnc5ccccn45)c3)no2)C1 [Compound I-225] | ** (a solubility greater than 10 μM and less than or equal to 50 μM) | 5000 to 30000 | 50 to 500 | 3.27 | 11.2 10^−6 cm/s | ≤ 50 |
| Cc1cc(C)cc(Nc2ccc3ncc(C(=O)Nc4cc(-c5noc([C@H]6C[C@@H]6F)n5)ccc4C)n3c2)c1 [Compound I-299] | **** (a solubility less than or equal to 2 μM) | 50 to 500 | ≤ 50 | 13.7 | 0.01 10^−6 cm/s | ≤ 50 |
